In paper PMC8162404, “Proteomimetic surface fragments distinguish targets by function” (Chemical Science, 2020):
Read-outs that look alike come from different tables or passages of the source.

What was measured:
Experiment in all cases: Pull-down assay with immobilized protein and LSM libraries
S100B = target: T1, S100B (Homo sapiens, UniProt P04271); assay type: binding; details: 1:1 binding assumed, read-out: Surface mapping KD (apparent)
T1 construct: made in house; host or cells: Escherichia coli BL21(DE3)
T1 sequence (P04271 1-92): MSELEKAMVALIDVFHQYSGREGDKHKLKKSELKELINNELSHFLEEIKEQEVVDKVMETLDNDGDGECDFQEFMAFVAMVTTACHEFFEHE
How it was run: (§1)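 Buffers were HEPES pH 7.4 with 150 mM NaCl, plus 1 mM TCEP and 1 mM CaCl2 (50 mM HEPES) for S100A4 and S100B, 1 mM TCEP for Gal-1, and no additive for RecQ-WH. Immobilized protein at 64 µM was equilibrated 30 min with the LSM sublibrary, and unbound probes were measured by LC-MS.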

S100A4 = target: T2, S100A4 (Homo sapiens, UniProt P26447); assay type: binding; details: 1:1 binding assumed, read-out: Surface mapping KD (apparent)
T2 construct: made in house; host or cells: Escherichia coli BL21(DE3)
T2 sequence (P26447 whole entry): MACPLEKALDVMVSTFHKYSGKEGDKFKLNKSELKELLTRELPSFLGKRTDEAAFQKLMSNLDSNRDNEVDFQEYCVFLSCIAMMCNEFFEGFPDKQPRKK
How it was run: as §1

Gal-1 = target: T3, Gal-1 (Homo sapiens, UniProt P09382); assay type: binding; details: H12 library; 1:1 binding assumed; read-out: Surface mapping KD (apparent)
T3 construct: made in house; host or cells: E. coli BL21(DE3)
T3 sequence (P09382 whole entry): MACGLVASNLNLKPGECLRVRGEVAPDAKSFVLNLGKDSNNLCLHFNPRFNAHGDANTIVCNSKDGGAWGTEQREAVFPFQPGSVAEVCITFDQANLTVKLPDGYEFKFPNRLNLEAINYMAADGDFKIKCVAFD
How it was run: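 His-tagged protein immobilized on Co-NTA resin (64 µM) in 20 mM HEPES pH 7.4, 150 mM NaCl, equilibrated 30 min at room temperature with foldamer LSM sublibraries at equimolar total concentration. Unbound fractions quantified by HPLC-MS versus protein-free resin control; apparent KD assumes 1:1 binding.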

CaM = target: T4, CaM (Bos taurus, UniProt P62157); assay type: binding, bovine; details: 1:2 stoichiometry assumed, read-out: Surface mapping KD (apparent)
T4 construct: made in house; host or cells: E. coli BL21 (DE3)
How it was run: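 His-tagged protein immobilized on Co-NTA resin, equilibrated 30 min at room temperature with LSM sublibraries (64 members, […]), equimolar protein to total probe. CaM buffer: 20 mM HEPES pH 7.4, 150 mM NaCl, 5 mM CaCl2. Bound fractions from HPLC-MS loss of unbound probe versus protein-free resin control; Kd derived.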

| SMILES | Kd (S100B; H12 library) | Kd (S100A4; H12 library) | Kd (Gal-1) | Kd (CaM; H12 library) | Kd (S100B; H14 library) | Kd (S100A4; H14 library) | Kd (CaM; H14 library) |
| --- | --- | --- | --- | --- | --- | --- | --- |
| NC(=O)[C@H]1CCC[C@@H]1NC(=O)[C@H]1CCC[C@@H]1NC(=O)C[C@H](Cc1ccccc1)NC(=O)[C@H]1CCC[C@@H]1NC(=O)[C@H]1CCC[C@@H]1NC(=O)C[C@H](Cc1ccccc1)NC(=O)[C@H]1CCC[C@@H]1NC(=O)[C@H]1CCC[C@@H]1N [H12 FF] | 14 µM | 125 µM | 130 µM | 21 µM |  |  |  |
| CC[C@H](C)[C@@H](CC(=O)N[C@H]1CCC[C@@H]1C(=O)N[C@H]1CCC[C@@H]1C(N)=O)NC(=O)[C@H]1CCC[C@@H]1NC(=O)[C@H]1CCC[C@@H]1NC(=O)C[C@H](Cc1ccccc1)NC(=O)[C@H]1CCC[C@@H]1NC(=O)[C@H]1CCC[C@@H]1N [H12 FI] | 13 µM | 126 µM | 167 µM | 15 µM |  |  |  |
| CC(C)C[C@@H](CC(=O)N[C@H]1CCC[C@@H]1C(=O)N[C@H]1CCC[C@@H]1C(N)=O)NC(=O)[C@H]1CCC[C@@H]1NC(=O)[C@H]1CCC[C@@H]1NC(=O)C[C@H](Cc1ccccc1)NC(=O)[C@H]1CCC[C@@H]1NC(=O)[C@H]1CCC[C@@H]1N [H12 FL] | 14 µM | 83 µM | 114 µM | 205 µM |  |  |  |
| CC(C)[C@@H](CC(=O)N[C@H]1CCC[C@@H]1C(=O)N[C@H]1CCC[C@@H]1C(N)=O)NC(=O)[C@H]1CCC[C@@H]1NC(=O)[C@H]1CCC[C@@H]1NC(=O)C[C@H](Cc1ccccc1)NC(=O)[C@H]1CCC[C@@H]1NC(=O)[C@H]1CCC[C@@H]1N [H12 FV] | 46 µM | 207 µM | 170 µM | 157 µM |  |  |  |
| NC(=O)[C@H]1CCC[C@@H]1NC(=O)[C@H]1CCC[C@@H]1NC(=O)C[C@H](Cc1c[nH]c2ccccc12)NC(=O)[C@H]1CCC[C@@H]1NC(=O)[C@H]1CCC[C@@H]1NC(=O)C[C@H](Cc1ccccc1)NC(=O)[C@H]1CCC[C@@H]1NC(=O)[C@H]1CCC[C@@H]1N [H12 FW] | 10 µM | 75 µM | 136 µM | 134 µM |  |  |  |
| CC[C@H](C)[C@@H](CC(=O)N[C@H]1CCC[C@@H]1C(=O)N[C@H]1CCC[C@@H]1C(=O)N[C@H](CC(=O)N[C@H]1CCC[C@@H]1C(=O)N[C@H]1CCC[C@@H]1C(N)=O)Cc1ccccc1)NC(=O)[C@H]1CCC[C@@H]1NC(=O)[C@H]1CCC[C@@H]1N [H12 IF] | 22 µM | 32 µM | 376 µM | 28 µM |  |  |  |
| CC[C@H](C)[C@@H](CC(=O)N[C@H]1CCC[C@@H]1C(=O)N[C@H]1CCC[C@@H]1C(N)=O)NC(=O)[C@H]1CCC[C@@H]1NC(=O)[C@H]1CCC[C@@H]1NC(=O)C[C@@H](NC(=O)[C@H]1CCC[C@@H]1NC(=O)[C@H]1CCC[C@@H]1N)[C@@H](C)CC [H12 II] | 25 µM | 79 µM | 395 µM | 67 µM |  |  |  |
| CC[C@H](C)[C@@H](CC(=O)N[C@H]1CCC[C@@H]1C(=O)N[C@H]1CCC[C@@H]1C(=O)N[C@H](CC(=O)N[C@H]1CCC[C@@H]1C(=O)N[C@H]1CCC[C@@H]1C(N)=O)CC(C)C)NC(=O)[C@H]1CCC[C@@H]1NC(=O)[C@H]1CCC[C@@H]1N [H12 IL] | 25 µM | 79 µM | 395 µM | 67 µM |  |  |  |
| CC[C@H](C)[C@@H](CC(=O)N[C@H]1CCC[C@@H]1C(=O)N[C@H]1CCC[C@@H]1C(=O)N[C@@H](CCSC)CC(=O)N[C@H]1CCC[C@@H]1C(=O)N[C@H]1CCC[C@@H]1C(N)=O)NC(=O)[C@H]1CCC[C@@H]1NC(=O)[C@H]1CCC[C@@H]1N [H12 IM] | 74 µM | 381 µM | 378 µM | 211 µM |  |  |  |
| CC[C@H](C)[C@@H](CC(=O)N[C@H]1CCC[C@@H]1C(=O)N[C@H]1CCC[C@@H]1C(=O)N[C@H](CC(=O)N[C@H]1CCC[C@@H]1C(=O)N[C@H]1CCC[C@@H]1C(N)=O)C(C)C)NC(=O)[C@H]1CCC[C@@H]1NC(=O)[C@H]1CCC[C@@H]1N [H12 IV] | 57 µM | 373 µM | 463 µM | 270 µM |  |  |  |
| CC[C@H](C)[C@@H](CC(=O)N[C@H]1CCC[C@@H]1C(=O)N[C@H]1CCC[C@@H]1C(=O)N[C@H](CC(=O)N[C@H]1CCC[C@@H]1C(=O)N[C@H]1CCC[C@@H]1C(N)=O)Cc1c[nH]c2ccccc12)NC(=O)[C@H]1CCC[C@@H]1NC(=O)[C@H]1CCC[C@@H]1N [H12 IW] | 11 µM | 28 µM | 368 µM | 19 µM |  |  |  |
| CC[C@H](C)[C@@H](CC(=O)N[C@H]1CCC[C@@H]1C(=O)N[C@H]1CCC[C@@H]1C(=O)N[C@H](CC(=O)N[C@H]1CCC[C@@H]1C(=O)N[C@H]1CCC[C@@H]1C(N)=O)Cc1ccc(O)cc1)NC(=O)[C@H]1CCC[C@@H]1NC(=O)[C@H]1CCC[C@@H]1N [H12 IY] | 56 µM | 100 µM | 347 µM | 28 µM |  |  |  |
| NCCCC[C@@H](CC(=O)N[C@H]1CCC[C@@H]1C(=O)N[C@H]1CCC[C@@H]1C(=O)N[C@H](CC(=O)N[C@H]1CCC[C@@H]1C(=O)N[C@H]1CCC[C@@H]1C(N)=O)Cc1ccccc1)NC(=O)[C@H]1CCC[C@@H]1NC(=O)[C@H]1CCC[C@@H]1N [H12 KF] | 66 µM | 416 µM | 292 µM | 239 µM |  |  |  |
| CC(C)C[C@@H](CC(=O)N[C@H]1CCC[C@@H]1C(=O)N[C@H]1CCC[C@@H]1C(N)=O)NC(=O)[C@H]1CCC[C@@H]1NC(=O)[C@H]1CCC[C@@H]1NC(=O)C[C@H](CCCCN)NC(=O)[C@H]1CCC[C@@H]1NC(=O)[C@H]1CCC[C@@H]1N [H12 KL] | 68 µM | 89 µM | 316 µM | 324 µM |  |  |  |
| NCCCC[C@@H](CC(=O)N[C@H]1CCC[C@@H]1C(=O)N[C@H]1CCC[C@@H]1C(=O)N[C@H](CC(=O)N[C@H]1CCC[C@@H]1C(=O)N[C@H]1CCC[C@@H]1C(N)=O)Cc1c[nH]c2ccccc12)NC(=O)[C@H]1CCC[C@@H]1NC(=O)[C@H]1CCC[C@@H]1N [H12 KW] | 39 µM | 456 µM | 161 µM | 51 µM |  |  |  |
| CC(C)C[C@@H](CC(=O)N[C@H]1CCC[C@@H]1C(=O)N[C@H]1CCC[C@@H]1C(=O)N[C@H](CC(=O)N[C@H]1CCC[C@@H]1C(=O)N[C@H]1CCC[C@@H]1C(N)=O)Cc1ccccc1)NC(=O)[C@H]1CCC[C@@H]1NC(=O)[C@H]1CCC[C@@H]1N [H12 LF] | 22 µM | 32 µM | 376 µM | 28 µM |  |  |  |
| CC[C@H](C)[C@@H](CC(=O)N[C@H]1CCC[C@@H]1C(=O)N[C@H]1CCC[C@@H]1C(N)=O)NC(=O)[C@H]1CCC[C@@H]1NC(=O)[C@H]1CCC[C@@H]1NC(=O)C[C@H](CC(C)C)NC(=O)[C@H]1CCC[C@@H]1NC(=O)[C@H]1CCC[C@@H]1N [H12 LI] | 37 µM | 143 µM | 415 µM | 67 µM |  |  |  |
| CC(C)C[C@@H](CC(=O)N[C@H]1CCC[C@@H]1C(=O)N[C@H]1CCC[C@@H]1C(N)=O)NC(=O)[C@H]1CCC[C@@H]1NC(=O)[C@H]1CCC[C@@H]1NC(=O)C[C@H](CC(C)C)NC(=O)[C@H]1CCC[C@@H]1NC(=O)[C@H]1CCC[C@@H]1N [H12 LL] | 46 µM | 131 µM | 415 µM | 67 µM |  |  |  |
| CC(C)[C@@H](CC(=O)N[C@H]1CCC[C@@H]1C(=O)N[C@H]1CCC[C@@H]1C(N)=O)NC(=O)[C@H]1CCC[C@@H]1NC(=O)[C@H]1CCC[C@@H]1NC(=O)C[C@H](Cc1c[nH]c2ccccc12)NC(=O)[C@H]1CCC[C@@H]1NC(=O)[C@H]1CCC[C@@H]1N [H12 WV] | 38 µM | 183 µM |  | 83 µM |  |  |  |
| NC(=O)[C@H]1CCC[C@@H]1NC(=O)[C@H]1CCC[C@@H]1NC(=O)C[C@H](Cc1ccc(O)cc1)NC(=O)[C@H]1CCC[C@@H]1NC(=O)[C@H]1CCC[C@@H]1NC(=O)C[C@H](Cc1c[nH]c2ccccc12)NC(=O)[C@H]1CCC[C@@H]1NC(=O)[C@H]1CCC[C@@H]1N [H12 WY] | 28 µM | 153 µM |  | 30 µM |  |  |  |
| NC(=O)[C@H]1CCC[C@@H]1NC(=O)[C@H]1CCC[C@@H]1NC(=O)C[C@H](Cc1ccccc1)NC(=O)[C@H]1CCC[C@@H]1NC(=O)[C@H]1CCC[C@@H]1NC(=O)C[C@H](Cc1ccc(O)cc1)NC(=O)[C@H]1CCC[C@@H]1NC(=O)[C@H]1CCC[C@@H]1N [H12 YF] | 36 µM | 239 µM |  | 30 µM |  |  |  |
| NC(=O)[C@H]1CCC[C@@H]1NC(=O)[C@H]1CCC[C@@H]1NC(=O)C[C@H](Cc1c[nH]c2ccccc12)NC(=O)[C@H]1CCC[C@@H]1NC(=O)[C@H]1CCC[C@@H]1NC(=O)C[C@H](Cc1ccc(O)cc1)NC(=O)[C@H]1CCC[C@@H]1NC(=O)[C@H]1CCC[C@@H]1N [H12 YW] | 28 µM | 153 µM |  | 30 µM |  |  |  |
| CC[C@H](C)[C@@H](CC(=O)N[C@H]1CCCC[C@@H]1C(N)=O)NC(=O)[C@H]1CCCC[C@@H]1NC(=O)[C@H]1CCCC[C@@H]1NC(=O)C[C@H](CCCCN)NC(=O)[C@H]1CCCC[C@@H]1N [H14 KI] |  |  |  |  | 80 µM | 85 µM | 22 µM |
| CC(C)C[C@@H](CC(=O)N[C@H]1CCCC[C@@H]1C(N)=O)NC(=O)[C@H]1CCCC[C@@H]1NC(=O)[C@H]1CCCC[C@@H]1NC(=O)C[C@H](CCCCN)NC(=O)[C@H]1CCCC[C@@H]1N [H14 KL] |  |  |  |  | 80 µM | 85 µM | 22 µM |
